Legend:
[1] = target: T1, hepatitis C virus RNA dependent polymerase (NS5B) (Hepatitis C virus genotype 1b, UniProt P26663); test: Inhibition of NS5B RNA dependent RNA polymerase activity; type: biochemical; details: assay of Example 158A; read-out: IC50 (nM) Ex 158A (converted)
T1 construct: the RNA dependent RNA polymerase of HCV, specifically, the enzyme NS5B encoded by HCV
Experimental: Inhibition of NS5B RNA Dependent RNA Polymerase Activity
Representative compounds of the invention are tested for inhibitory activity against the hepatitis C virus RNA dependent polymerase (NS5B), using the assay described in WO2009/018657, herein incorporated by reference.

[2] = tested on: HCV RNA replication in Huh-7 cells with a stable subgenomic HCV replicon (MP-1 cells); test: microbe, parasite or virus in culture; type: cell-based; details: Hepatitis C virus, assay of Example 159A, read-out: EC50 (nM) Ex 159A (converted)

T1 sequence (P26663 2420-3010): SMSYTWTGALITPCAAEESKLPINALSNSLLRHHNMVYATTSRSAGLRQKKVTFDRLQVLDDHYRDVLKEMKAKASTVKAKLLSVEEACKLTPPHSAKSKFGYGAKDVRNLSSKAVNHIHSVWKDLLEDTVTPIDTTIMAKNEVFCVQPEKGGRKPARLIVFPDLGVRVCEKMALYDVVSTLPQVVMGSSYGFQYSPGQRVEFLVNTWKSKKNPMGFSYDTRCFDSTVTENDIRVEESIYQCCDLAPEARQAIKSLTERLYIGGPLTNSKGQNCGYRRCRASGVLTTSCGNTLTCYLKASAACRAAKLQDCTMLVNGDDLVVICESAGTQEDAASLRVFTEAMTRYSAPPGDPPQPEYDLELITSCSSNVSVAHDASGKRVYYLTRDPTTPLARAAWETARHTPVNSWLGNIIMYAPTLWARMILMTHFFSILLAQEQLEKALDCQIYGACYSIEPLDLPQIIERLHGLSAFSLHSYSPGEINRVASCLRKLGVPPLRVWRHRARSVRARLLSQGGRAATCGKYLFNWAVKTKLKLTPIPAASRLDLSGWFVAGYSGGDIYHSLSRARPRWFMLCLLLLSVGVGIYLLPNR

Row | SMILES | IC50 [1] | EC50 [2]
1 | CN(C)C(=O)c1cccc(Oc2ccc3c(c2)c(=O)ncn3Cc2c(F)cc(F)cc2F)c1 [Compound 7034] | 4900 nM | 5700 nM
2 | CCNc1ccc(-c2cccc(Oc3ccc4c(c3)c(=O)ncn4[C@H](C)c3c(F)cc(F)cc3F)c2C(F)(F)F)cn1 [Compound 9001] | 23 nM | 
3 | Cc1c(-c2cccc(Oc3ccc4c(c3)c(=O)ncn4Cc3c(F)cc(F)cc3F)c2C(F)(F)F)cnn1-c1ccccc1 [Compound 9019] | 51 nM | 183 nM
4 | Cc1nc(-c2cccc(Oc3ccc4c(c3)c(=O)ncn4[C@H](C)c3c(F)cc(F)cc3F)c2C(F)(F)F)ncc1N [Compound 9025] | 14 nM | 
5 | Cc1ncccc1NC(=O)c1ccc(Oc2ccc3c(c2)c(=O)ncn3Cc2c(F)cc(F)cc2F)c(C(F)(F)F)c1 [Compound 6047] | 15 nM | 10 nM
6 | Cc1ccc(Cn2cnc(=O)c3cc(Oc4ncccc4C(F)(F)F)ccc32)c(-c2ccsc2)c1 [Compound 3052] | 110 nM | 210 nM
7 | Cc1ccc(Cn2cnc(=O)c3cc(Oc4ccc(C(N)=O)cc4)ccc32)c(F)c1 [Compound 1030] | 610 nM | 8500 nM
8 | O=c1ncn(Cc2c(F)cc(F)cc2F)c2ccc(Oc3cccc(-c4ccc5nonc5c4)c3C(F)(F)F)cc12 [Compound 9020] | 107 nM | 199 nM
9 | O=c1ncn(Cc2c(F)cc(F)cc2F)c2ccc(Oc3ncc(Cc4nn[nH]n4)cc3C(F)(F)F)cc12 [Compound 4020] | 78 nM | 5400 nM
10 | NC(=O)Cc1cccc(Oc2ccc3c(c2)c(=O)ncn3Cc2c(F)cc(F)cc2F)c1C(F)(F)F [Compound 6036] | 18 nM | 60 nM
11 | O=c1ncn(Cc2c(F)cc(F)cc2F)c2ccc(Oc3cccc(-c4cccc5[nH]ccc45)c3C(F)(F)F)cc12 [Compound 9016] | 25 nM | 2.2 nM
12 | C[C@H](c1c(F)cc(F)cc1F)n1cnc(=O)c2cc(Oc3cccc(-c4ncc(N)cn4)c3C(F)(F)F)ccc21 [Compound 9011] | 7.8 nM | 
13 | CCc1nc(=O)c2cc(Oc3ncccc3C(F)(F)F)ccc2n1-c1cccnc1-c1ccc(C)cc1F [Compound 8011] | 34500 nM | 4800 nM
14 | C[C@H](c1c(F)cc(F)cc1F)n1cnc(=O)c2cc(Oc3cccc(-c4ccc(N)nc4)c3C(F)(F)F)ccc21 [Compound 9003] | 18 nM | 4 nM
15 | N#Cc1cc(-c2cccc(Oc3ccc4c(c3)c(=O)ncn4Cc3c(F)cc(F)cc3F)c2C(F)(F)F)cnc1N [Compound 9026] | 28 nM | 
16 | O=c1ncn(Cc2c(F)cc(F)cc2F)c2ccc(O[C@H]3CC[C@H](CO)CC3)cc12 [Compound 2061] | 530 nM | 2500 nM
17 | CN(C)c1cc2c(cc1Oc1ncccc1C(F)(F)F)c(=O)ncn2Cc1ccc(F)cc1F [Compound 8009] |  | > 10000 nM
18 | COCCOc1ccnc(Oc2ccc3c(c2)c(=O)ncn3Cc2c(F)cc(F)cc2F)c1C(F)(F)F [Compound 4003] | 67 nM | 61 nM
19 | O=c1ncn(Cc2ccc(F)cc2F)c2ccc(Oc3ncc(Cn4nccn4)cc3C(F)(F)F)cc12 [Compound 5001] | 240 nM | 470 nM
20 | Cc1ccc(-c2ncccc2-n2cnc(=O)c3cc(Oc4ncccc4C(F)(F)F)ccc32)cc1 [Compound 3090] | 130 nM | 82 nM
